Laboratory results from patent US20240269145A1, “USE OF INDOLE COMPOUND AS INHIBITORS OF FERROPTOSIS” (MITOIMMUNE THERAPEUTICS INC., priority 2023, published 2024).

Tests used:
Type in all cases: cell-based
PC-12 cells [1] = assay: Mitochondrial iron ion accumulation (Mito-FerroGreen, images) after RSL3; details: PC-12, RSL3 0.3 μM, 30 minutes; Example Compound 1 1 μM, DFO 10 μM
Procedure: (§1) Experimental Example 9-1: To confirm the inhibitory effect against mitochondrial iron ion accumulation in lung epithelial cells and adrenal medulla cells, 3×10^5 MLE-12 cells and PC-12 cells were each dispensed into a confocal dish and cultured for 18 to 24 hours. Each well was treated with Example Compound 1 and DFO, which were diluted so that their final concentration became 1 μM and 10 μM, respectively, and culture was performed for 20 minutes. Afterwards, the MLE-12 cells were treated with RSL3 so that the final concentration became 1 μM, and cultured for 1 hour and 30 minutes, and the PC-12 cells were treated with RSL3 so that the final concentration became 0.3 μM, and cultured for 30 minutes. To confirm the inhibitory effect against mitochondrial iron ion accumulation, Mito-FerroGreen [DOJINDO; M489] was used. According to the manufacturer's experimental method, Mito-FerroGreen was diluted in the cell culture medium so that the final concentration became 1 μM, and the cells were treated therewith and allowed to react for 30 minutes to perform fluorescent staining. The cells fluorescently stained with Mito-FerroGreen were observed using a fluorescence microscope [Carl Zeiss; Axio Observer 7] to investigate the change in fluorescence (excitation/absorption 450 to 490 nm/500 to 550 nm) compared to the control group (RSL3 untreated group).

MLE-12 cells = assay: as above; details: MLE-12, RSL3 1 μM, 1 hour 30 minutes; Example Compound 1 1 μM, DFO 10 μM
Procedure: as §1

PC-12 cells [2] = assay: Cytosolic iron ion accumulation (FerroOrange, images) after RSL3; details: PC-12, 0.3 μM RSL3, 1 hour; Example Compound 1 1 μM, DFO 10 or 100 μM
Procedure: To confirm the inhibitory effect against cytosolic iron ion accumulation in adrenal medulla cells and cardiac cells, 3×10^5 PC-12 cells and H9C2 cells were each dispensed into a 35 mm confocal dish and cultured for 18 to 36 hours. Each well was treated with the Example Compound 1, which was diluted so that the final concentration became 1 μM, and with DFO, which was diluted so that the final concentration became 10 µM and 100 μM, and culture was performed for 20 to 30 minutes. Afterwards, the PC-12 cells and H9C2 cells were each treated with RSL3 and erastin so that their final concentration became 0.3 µM and 1 μM, respectively, and cultured for 1 hour and 7 hours. To confirm the inhibitory effect against cytosolic iron ion accumulation, FerroOrange [DOJINDO; F374] was used. According to the manufacturer's experimental method, FerroOrange was diluted in the cell culture medium so that the final concentration became 1 μM, and the cells were treated therewith. […] The cells fluorescently stained with FerroOrange were observed using a fluorescence microscope [Carl Zeiss; Axio Observer 7] to investigate the change in fluorescence (excitation/absorption 580 nm/543 nm) compared to the control group (RSL3 and erastin untreated group).

O=S1(=O)CCN(Cc2cc(NC3CCOCC3)c3[nH]c(-c4ccccc4)cc3c2)CC1 [Example 1, 5-[(1,1-dioxido-4-thiomorpholinyl)methyl]-2-phenyl-N-(tetrahydro-2H-pyran-4-yl)-1H-indole-7-amine]
decrease was confirmed: mitochondrial iron ion accumulation (images) (PC-12 cells [1]) | mitochondrial iron ion accumulation (images) (MLE-12 cells) | cytosolic iron ion accumulation (images) (PC-12 cells [2])
